Data: US20150337056A1, “Method for Immediately Terminating Radical Polymerizations, Inhibitor Solution, and Use Thereof” (Allessa GmbH, priority 2013, published 2015)

Experiments:
[1] = solutions in N-alkylpyrrolidones (N-methylpyrrolidone, N-ethylpyrrolidone); cited from earlier work
[2] = Solubility of phenothiazine in conventional organic solvents; assay type: physicochemical
From the text: Only in the N-methylpyrrolidone already mentioned and in the chemically and toxicologically related dimethylformamide could concentrated solutions of 30 percent by weight or more be prepared.
Tetrahydrofuran and acetone could also be identified as good solvents. Unfortunately these solvents have low boiling points and flashpoints which renders transport, storage and handling of the solutions more difficult.

[3] = Solubility and low-temperature stability of inhibitors in (poly)alkylene glycols

## COc1ccc(O)cc1 [MEHQ, hydroquinone monomethyl ether]
[1]
  low temperature down to which solutions are stable: −11 °C

## c1ccc2c(c1)Nc1ccccc1S2 [phenothiazine]
[2]; in N-methylpyrrolidone and in dimethylformamide
  concentrated solutions that could be prepared: ≥ 30 percent by weight
[2]; in methanol, ethanol, isopropanol, toluene, cyclohexane or n-hexane
  solubility: 2-3 percent by weight
[2]; tetrahydrofuran and acetone
  solvent quality for phenothiazine: good solvents
[3]; in (poly)alkylene glycols, between −20° C. and +20° C., FIG. 1
  temperature dependence of solubility: virtually independent of the temperature
[3]; in poly(alkylene) glycol(s)
  solubility in poly(alkylene) glycol(s): readily soluble
  temperature down to which stable solutions are formed: −25 °C
[1]
  low temperature down to which solutions are stable: −11 °C
